According to patent US20090012019A1, “Methods and Compositions Related to TR4” (priority 2005, published 2009):

Columns and labels:
[1] = short acting NO donor, vendor reagent (Alexis); cited from earlier work
TR4 [2] = test: Stress-induced TR4 expression in wt MEF; format: cell-based, mice; conditions: wt MEF treated with cobalt chloride to mimic hypoxia stress
TR4 [3] = conditions: C2C12 cells, 250 μM H2O2 for 2 h; mRNA at 4 hr, protein at 8 hr
Description: The levels of TR4 mRNA and proteins were measured by Q-PCR and Western blotting analyses.
To dissect potential molecular mechanism by which TR4 is involved in the ROS/DNA damage/DNA repair signal cascades, TR4 expression levels were examined upon exposure to genotoxic stress (such as H2O2).

Nc1n[n+](-c2ccc(Cl)c(Cl)c2)no1.[Cl-] [GEA 3162, 1,2,3,4-oxatriazolium, 5-amino-3-(3,4-dichlorophenyl)-chloride]
halftime [1]: ~3 min

[Cl][Co][Cl] [cobalt chloride]
TR4 expression (TR4 [2]): up-regulated

OO [H2O2, hydrogen peroxide]
TR4 mRNA and protein expression (TR4 [3]): increased
